Assay results from PubChem BioAssay AID1963843 (Molecular Pharmacology Branch, DTP, NCI, 2024).

Test system: 616215-338-R-J1-PDC complex spheroid viability
Assay: Anticancer human tumor 616215-338-R-J1-PDC patient-derived colon adenocarcinoma cell line growth inhibition [POLQ]
Conditions: for IC50: curve of first compound; for viability, T/C: stronger effect = lower value
Summary of the method: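 Growth inhibition in 3D: complex spheroids (tumor PDC, HUVEC, MSC) treated with POLQ inhibitor combinations; where Cmax unknown, highest tested concentration 10 microM, except SN-38 at 1 microM.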

[1] = second compound 0.0316 µM, first compound 0.00316 µM
[2] = second compound 0.0316 µM, first compound 0.01 µM
[3] = second compound 0.0316 µM, first compound 0.0316 µM
[4] = second compound 0.0316 µM, first compound 0.1 µM
[5] = second compound 0.1 µM, first compound 0.00316 µM
[6] = second compound 0.1 µM, first compound 0.01 µM
[7] = second compound 0.1 µM, first compound 0.0316 µM
[8] = second compound 0.1 µM, first compound 0.1 µM
[9] = second compound 0.316 µM, first compound 0.00316 µM
[10] = second compound 0.316 µM, first compound 0.01 µM
[11] = second compound 0.316 µM, first compound 0.0316 µM
[12] = second compound 0.316 µM, first compound 0.1 µM
[13] = second compound 1 µM, first compound 0.00316 µM
[14] = second compound 1 µM, first compound 0.01 µM
[15] = second compound 1 µM, first compound 0.0316 µM
[16] = second compound 1 µM, first compound 0.1 µM
[17] = second compound 3.16 µM, first compound 0.00316 µM
[18] = second compound 3.16 µM, first compound 0.01 µM
[19] = second compound 3.16 µM, first compound 0.0316 µM
[20] = second compound 3.16 µM, first compound 0.1 µM
[21] = second compound 10 µM, first compound 0.00316 µM
[22] = second compound 10 µM, first compound 0.01 µM
[23] = second compound 10 µM, first compound 0.0316 µM
[24] = second compound 10 µM, first compound 0.1 µM
[25] = second compound 0.0316 µM, first compound 0.316 µM
[26] = second compound 0.0316 µM, first compound 1 µM
[27] = second compound 0.1 µM, first compound 0.316 µM
[28] = second compound 0.1 µM, first compound 1 µM
[29] = second compound 0.316 µM, first compound 0.316 µM
[30] = second compound 0.316 µM, first compound 1 µM
[31] = second compound 1 µM, first compound 0.316 µM
[32] = second compound 1 µM, first compound 1 µM
[33] = second compound 3.16 µM, first compound 0.316 µM
[34] = second compound 3.16 µM, first compound 1 µM
[35] = second compound 10 µM, first compound 0.316 µM
[36] = second compound 10 µM, first compound 1 µM
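Also: spheroids exposed to compounds for one week before readout.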
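For viability, T/C in this document: percent viability relative to DMSO vehicle wells taken as 100%.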

## CC[C@@]1(O)C(=O)OCc2c1cc1n(c2=O)Cc2cc3c(CN(C)C)c(O)ccc3nc2-1 + COC1C(OC(N)=O)C(O)C(Oc2ccc3c(O)c(NC(=O)c4ccc(O)c(CC=C(C)C)c4)c(=O)oc3c2C)OC1(C)C
Second compound 0.0316 µM
  IC50: > 100 nM
Second compound 0.1 µM
  IC50: > 100 nM
Second compound 0.316 µM
  IC50: > 100 nM
Second compound 1 µM
  IC50: > 100 nM
Second compound 3.16 µM
  IC50: > 100 nM
Second compound 10 µM
  IC50: > 100 nM
Second compound 0.0316 µM, first compound 0.000316 µM
  viability, T/C: 99.3%
Second compound 0.0316 µM, first compound 0.001 µM
  viability, T/C: 97.5%
[1]
  viability, T/C: 104%
[2]
  viability, T/C: 97.6%
[3]
  viability, T/C: 102%
[4]
  viability, T/C: 81.7%
Second compound 0.1 µM, first compound 0.000316 µM
  viability, T/C: 99.2%
Second compound 0.1 µM, first compound 0.001 µM
  viability, T/C: 112%
[5]
  viability, T/C: 99.5%
[6]
  viability, T/C: 106%
[7]
  viability, T/C: 106%
[8]
  viability, T/C: 78.6%
Second compound 0.316 µM, first compound 0.000316 µM
  viability, T/C: 103%
Second compound 0.316 µM, first compound 0.001 µM
  viability, T/C: 93.5%
[9]
  viability, T/C: 95.1%
[10]
  viability, T/C: 105%
[11]
  viability, T/C: 110%
[12]
  viability, T/C: 90.3%
Second compound 1 µM, first compound 0.000316 µM
  viability, T/C: 101%
Second compound 1 µM, first compound 0.001 µM
  viability, T/C: 98.8%
[13]
  viability, T/C: 98.5%
[14]
  viability, T/C: 101%
[15]
  viability, T/C: 101%
[16]
  viability, T/C: 75.5%
Second compound 3.16 µM, first compound 0.000316 µM
  viability, T/C: 95.3%
Second compound 3.16 µM, first compound 0.001 µM
  viability, T/C: 101%
[17]
  viability, T/C: 99.4%
[18]
  viability, T/C: 100%
[19]
  viability, T/C: 101%
[20]
  viability, T/C: 64.9%
Second compound 10 µM, first compound 0.000316 µM
  viability, T/C: 106%
Second compound 10 µM, first compound 0.001 µM
  viability, T/C: 99.5%
[21]
  viability, T/C: 96.2%
[22]
  viability, T/C: 100%
[23]
  viability, T/C: 93.5%
[24]
  viability, T/C: 58.8%

## CCc1c2c(nc3ccc(O)cc13)-c1cc3c(c(=O)n1C2)COC(=O)[C@]3(O)CC + COC1C(OC(N)=O)C(O)C(Oc2ccc3c(O)c(NC(=O)c4ccc(O)c(CC=C(C)C)c4)c(=O)oc3c2C)OC1(C)C
Second compound 0.0316 µM
  IC50: 93.7 nM
Second compound 0.1 µM
  IC50: 87.2 nM
Second compound 0.316 µM
  IC50: 92.6 nM
Second compound 1 µM
  IC50: 72.1 nM
Second compound 3.16 µM
  IC50: 49.3 nM
Second compound 10 µM
  IC50: 30.7 nM
[1]
  viability, T/C: 110%
[2]
  viability, T/C: 87.6%
[3]
  viability, T/C: 70.6%
[4]
  viability, T/C: 49.2%
[25]
  viability, T/C: 30.4%
[26]
  viability, T/C: 20.2%
[5]
  viability, T/C: 103%
[6]
  viability, T/C: 95.4%
[7]
  viability, T/C: 73.5%
[8]
  viability, T/C: 45.8%
[27]
  viability, T/C: 30.1%
[28]
  viability, T/C: 19.2%
[9]
  viability, T/C: 107%
[10]
  viability, T/C: 95.7%
[11]
  viability, T/C: 67.8%
[12]
  viability, T/C: 50%
[29]
  viability, T/C: 30.8%
[30]
  viability, T/C: 18.5%
[13]
  viability, T/C: 103%
[14]
  viability, T/C: 81.3%
[15]
  viability, T/C: 60.7%
[16]
  viability, T/C: 47.9%
[31]
  viability, T/C: 28.9%
[32]
  viability, T/C: 19.6%
[17]
  viability, T/C: 106%
[18]
  viability, T/C: 87.2%
[19]
  viability, T/C: 59.7%
[20]
  viability, T/C: 35.1%
[33]
  viability, T/C: 24.1%
[34]
  viability, T/C: 20.6%
[21]
  viability, T/C: 86.7%
[22]
  viability, T/C: 65.5%
[23]
  viability, T/C: 53.7%
[24]
  viability, T/C: 32.5%
[35]
  viability, T/C: 21.7%
[36]
  viability, T/C: 21.1%

## COc1cc(C2c3cc4c(cc3C(OC3OC5COC(C)OC5C(O)C3O)C3COC(=O)C23)OCO4)cc(OC)c1O (stereo unspecified) + COC1C(OC(N)=O)C(O)C(Oc2ccc3c(O)c(NC(=O)c4ccc(O)c(CC=C(C)C)c4)c(=O)oc3c2C)OC1(C)C
Second compound 0.0316 µM
  IC50: > 10000 nM
Second compound 0.1 µM
  IC50: > 10000 nM
Second compound 0.316 µM
  IC50: > 10000 nM
Second compound 1 µM
  IC50: 8650 nM
Second compound 3.16 µM
  IC50: > 10000 nM
Second compound 10 µM
  IC50: > 10000 nM
[3]
  viability, T/C: 100%
[4]
  viability, T/C: 102%
[25]
  viability, T/C: 95.3%
[26]
  viability, T/C: 83%
Second compound 0.0316 µM, first compound 3.16 µM
  viability, T/C: 88.3%
Second compound 0.0316 µM, first compound 10 µM
  viability, T/C: 54.2%
[7]
  viability, T/C: 117%
[8]
  viability, T/C: 117%
[27]
  viability, T/C: 95.6%
[28]
  viability, T/C: 81.8%
Second compound 0.1 µM, first compound 3.16 µM
  viability, T/C: 77.1%
Second compound 0.1 µM, first compound 10 µM
  viability, T/C: 59.8%
[11]
  viability, T/C: 108%
[12]
  viability, T/C: 106%
[29]
  viability, T/C: 93.4%
[30]
  viability, T/C: 85.8%
Second compound 0.316 µM, first compound 3.16 µM
  viability, T/C: 81%
Second compound 0.316 µM, first compound 10 µM
  viability, T/C: 55%
[15]
  viability, T/C: 104%
[16]
  viability, T/C: 113%
[31]
  viability, T/C: 92.5%
[32]
  viability, T/C: 86.1%
Second compound 1 µM, first compound 3.16 µM
  viability, T/C: 74.5%
Second compound 1 µM, first compound 10 µM
  viability, T/C: 45.8%
[19]
  viability, T/C: 111%
[20]
  viability, T/C: 111%
[33]
  viability, T/C: 100%
[34]
  viability, T/C: 79%
Second compound 3.16 µM, first compound 3.16 µM
  viability, T/C: 68.1%
Second compound 3.16 µM, first compound 10 µM
  viability, T/C: 59.3%
[23]
  viability, T/C: 106%
[24]
  viability, T/C: 108%
[35]
  viability, T/C: 84.5%
[36]
  viability, T/C: 82.5%
Second compound 10 µM, first compound 3.16 µM
  viability, T/C: 74.1%
Second compound 10 µM, first compound 10 µM
  viability, T/C: 56.5%
